Assay [1] relates to Hamster Tracheal Organ Culture (keratinization). Kind of assay: tracheal organ culture assay (reversal of keratinization in hamster tracheal organ culture). The class given is cell-based. As to conditions: for Reversal of Keratinization in Hamster Tracheal Organ Culture, Active/Total Cultures: active = neither keratin nor keratohyaline granules seen, or keratohyaline granules alone absent; for Reversal of Keratinization in Hamster Tracheal Organ Culture, Active/Total Cultures (%): percent of active cultures. The method, then:
(§1) The ODC assay measures a compound's ability to prevent the induction of ODC. The tracheal organ culture assay measures a compound's ability to reverse keratinization.
The tracheal organ culture assay is carried out as follows. Tracheas are taken from hamsters that are in very early stages of vitamin A deficiency and placed in organ culture. At the time of culture, the animals are still gaining weight; the tracheal epithelium is generally low columnar or cuboidal, with only occasional patches of squamous metaplasia. Each trachea is opened from the larynx to the carina along the membranous dorsal wall and cultured in a serum-free medium (CMRL-1066; with crystalline bovine insulin, 0.1 μg/ml; hydrocortisone hemisuccinate, 0.1 μg/ml; glutamine, 2 mM; penicillin, 100 units/ml; and streptomycin,100 μg/ml, added). Cultures are gassed with 50% oxygen, 45% nitrogen, and 5% CO2. The culture dishes are rocked at 35.5-36.0 degrees to allow the tracheas contact with both gas and medium. All tracheas are grown in medium containing no retinoid for the first 3 days. At the end of 3 days, some tracheas are harvested; almost all of these tracheas have significant squamous metaplasia, and approximately 60% have keratinized lesions. The remaining tracheas are then divided into different groups which are treated with either: (1) retinoid dissolved in dimethylsulfoxide (final concentration of DMSO in culture medium is never greater than 0.1%) or (2) an equivalent amount of DMSO alone. Culture medium is changed three times a week, and all of the remaining tracheas are harvested at the end of 10 days in culture. Tracheas are fixed in 10% buffered formalin and embedded in paraffin. Cross sections of five micrometers are made through the mid-portion, stained with hematoxylin and eosin, and then scored with a microscope for the presence of keratin and keratohyaline granules, both of which are found in approximately 90% of control cultures that received no retinoid for the entire 10 day culture period.

A further assay deals with Ornithine Decarboxylase. The assay can be described thus: ornithine decarboxylase (ODC) assay: inhibition of induction of ODC by 12-O-tetradecanoylphorbol-13-acetate in mouse skin. As to conditions: topical, 1 hour before TPA (17 nmol). The class given is in vivo, mouse (female Charles River CD-1). As for the experimental part: as §1
The ODC assay is carried out as follows. Female Charles River CD-1 mice from Charles River Breeding Laboratories, Wilmington, Massachusetts, are used (age 7 to 9 weeks). The dorsal hair of the mice is shaved 1 to 2 days before testing, and only mice showing no hair regrowth are used. A single dose of 12-O-tetradecanoylphorbol-13-acetate (TPA) (10.5 μg, 17 nmol) in 0.2 mL of acetone is applied topically to the back of each mouse. The test compound, at one of three dose levels (1.7, 17 and 170 nmol), dissolved in 0.2 mL of acetone is applied 1 hour before the TPA treatment to the test groups; the control group is treated with acetone alone. The mice are killed by cervical dislocation five hours after TPA treatment. Determinations are done in triplicate.
The epidermis is obtained from the sacrificed animals. To obtain sufficient material, the dorsal skins from 2 to 3 mice in each treatment group are pooled. The depilatory agent Nudit® (Helena Rubinstein, New York) is applied to the shaved area of the skin; after 5 minutes, it is washed off thoroughly with cold tap water. Then the skin is excised and plunged immediately into ice-cold water; it is then placed in a 55° C. water bath for 30 seconds and reimmersed in ice-cold water for at least another 30 seconds. The skin is placed epidermis side up on a cold plate, and the epidermis is scraped off with a razor blade. The pooled epidermal sheets are homogenized (Polytron PT-10 homogenizer) at 0° to 4° C. for 15-20 seconds in 50 mM sodium phosphate and 0.1 mM ethylenediaminetetraacetic acid (EDTA), at a volume of 1 mL/skin.
The supernatant fraction remaining after centrifugation of the homogenate at 10,000× g for 30 seconds at 0° C. is used for the enzyme assay. Enzyme activity is determined using the microassay for ODC as described by Verma and Boutwell to measure the release of ^14 CO2 from DL-[1-^14 C]-ornithine (58 mCi/mmol) after incubation with the 10,000× g supernatant. The incubations are carried out by decanting, with a Pasteur pipette, 100 μL of the supernatant containing 100 to 120 μg of protein into two or three 15-mL Corex tubes in a shaking water bath at 37° C. The assay mixture in the tubes consists of 50 μL of 100 mM sodium phosphate buffer (pH 7.2), 10 μL of 4 mM pyridoxal phosphate, 40 μL of 25 mM dithiothreitol, and 1 μL of 0.1 M EDTA. The center wells in the tubes are filled with 200 μL of a 2:1 solution (v/v) of ethanolamine:2-methoxyethanol. The reaction is started by adding 50 μL of substrate (0.5 μCi of DL-[1-^14 C]-ornithine in 2 mM cold ornithine) at 1-minute intervals by injection to each of the stoppered tubes. Incubations are routinely carried out at 37° C. for 30 to 60 minutes. The reaction is stopped by addition of 0.5 ml of 2 M citric acid, and incubation is continued for an additional hour without heating to ensure complete absorption of ^14 CO2.
Radioactivity is measured using a toluene-based scintillant (4 g of PPO and 50 mg of POPOP/L of toluene) in a Beckman LS-250 liquid scintillation counter. Enzyme activity is determined in triplicate and expressed as nanomoles of CO2 released in 30 minutes per milligram of protein. Enzyme activity is linear for the protein concentration used. The protein concentrations of the epidermal extracts are determined by the Lowry procedure, using bovine serum albumin as the standard.

Consider `CCOC(=O)c1ccc(/C=C(C)/C=C/C2=C(C)CCCC2(C)C)c(F)c1` [Example 5, (E)-1-(4-Carbethoxy-2-fluorophenyl)-2-methyl-4-(2,6,6-trimethyl-1-cyclohexen-1-yl)-1,3-butadiene], for which the “Reversal of Keratinization in Hamster Tracheal Organ Culture, Active/Total Cultures” value in assay [1] (Conc 10^-8 M) is on record as 6/6; in assay [1] (Conc 10^-9 M), 6/7; in assay [1] (Conc 10^-10 M), 4/7. For the same molecule, the “Reversal of Keratinization in Hamster Tracheal Organ Culture, Active/Total Cultures (%)” value (shortened to “Reversal … Active/Total Cultures (%)”) turned out to be 100% in assay [1] (Conc 10^-8 M), 86% in assay [1] (Conc 10^-9 M) and 56% in assay [1] (Conc 10^-10 M). Moreover, the figures for the “Inhibition of Induction of Ornithine Decarboxylase by 12-O-Tetradecanoylphorbol-13-acetate in Mouse Skin, % Inhibition of Control” value (“Inhibition … % Inhibition of Control” below) in the assay with Ornithine Decarboxylase (Dose 1.7 nmol) and with Ornithine Decarboxylase (Dose 17 nmol) were 8% and 46%, respectively.

Take `CC1=C(/C=C/C(C)=C/c2ccc(C(=O)O)cc2F)C(C)(C)CCC1` [Example 6, (E)-1-(4-Carboxy-2-fluorophenyl)-2-methyl-4-(2,6,6-trimethyl-1-cyclohexen-1-yl)-1,3-butadiene]: the “Reversal of Keratinization in Hamster Tracheal Organ Culture, Active/Total Cultures” value in assay [1] (Conc 10^-8 M) was 6/6; in assay [1] (Conc 10^-9 M), 12/12; in assay [1] (Conc 10^-10 M) it was 3/11. The “Reversal … Active/Total Cultures (%)” value in assay [1] (Conc 10^-8 M) came to 100%; in assay [1] (Conc 10^-9 M) it was 100%; in assay [1] (Conc 10^-10 M), 27%. The figures for the “Inhibition … % Inhibition of Control” value in the assay with Ornithine Decarboxylase (Dose 1.7 nmol) and with Ornithine Decarboxylase (Dose 17 nmol) were 37% and 78%, respectively.

Turning to `CC1=C(/C=C/C(C)=C(\F)c2ccc(C(=O)O)cc2)C(C)(C)CCC1` [Example 2, (1Z,3E)-1-(4-Carboxyphenyl)-1-fluoro-2-methyl-4-(2,6,6-trimethyl-1-cyclohexen-1-yl)-1,3-butadiene], the “Reversal of Keratinization in Hamster Tracheal Organ Culture, Active/Total Cultures” value is listed as 13/13 in assay [1] (Conc 10^-8 M), 12/13 in assay [1] (Conc 10^-9 M) and 5/13 in assay [1] (Conc 10^-10 M). Also, the “Reversal … Active/Total Cultures (%)” value in assay [1] (Conc 10^-8 M) amounted to 100%; in assay [1] (Conc 10^-9 M), 92%; in assay [1] (Conc 10^-10 M) it was 38%. The “Inhibition … % Inhibition of Control” value with Ornithine Decarboxylase (Dose 1.7 nmol) was found to be 70%; with Ornithine Decarboxylase (Dose 17 nmol), 80%.

In the case of `CCOC(=O)c1ccc(/C(F)=C(C)/C=C/C2=C(C)CCCC2(C)C)cc1` [Example 1, (1Z,3E)-1-(4-carbethoxyphenyl)-1-fluoro-2-methyl-4-(2,6,6-trimethyl-1-cyclohexen-1-yl)-1,3-butadiene], the entries for the “Reversal of Keratinization in Hamster Tracheal Organ Culture, Active/Total Cultures” value in assay [1] (Conc 10^-8 M), in assay [1] (Conc 10^-9 M) and in assay [1] (Conc 10^-10 M) were 11/12, 10/12 and 6/13, respectively. Also, the “Reversal … Active/Total Cultures (%)” value in assay [1] (Conc 10^-8 M) is on record as 92%; in assay [1] (Conc 10^-9 M), 83%; in assay [1] (Conc 10^-10 M), 46%. The “Inhibition … % Inhibition of Control” value in the assay with Ornithine Decarboxylase (Dose 1.7 nmol) came to 56%; with Ornithine Decarboxylase (Dose 17 nmol) it was 82%.

Regarding `CCOC(=O)c1ccc(/C=C(C)/C=C/C2=C(C)CCCC2(C)C)c(OC)c1` [Example 3, (E)-1-(4-carbethoxy-2-methoxyphenyl)-2-methyl-4-(2,6,6-trimethyl-1-cyclohexen-1-yl)-1,3-butadiene], the “Reversal of Keratinization in Hamster Tracheal Organ Culture, Active/Total Cultures” value in assay [1] (Conc 10^-8 M) is reported as 7/7; in assay [1] (Conc 10^-9 M) it was 5/7; in assay [1] (Conc 10^-10 M) it was 4/7. Also, the “Reversal … Active/Total Cultures (%)” value is 100% in assay [1] (Conc 10^-8 M), 71% in assay [1] (Conc 10^-9 M) and 57% in assay [1] (Conc 10^-10 M). Moreover, the figures for the “Inhibition … % Inhibition of Control” value with Ornithine Decarboxylase (Dose 1.7 nmol) and in the assay with Ornithine Decarboxylase (Dose 17 nmol) were 21% and 39%, respectively.
